The text below walks through data of publication PMC3731256, “Optimization of Substituted 6-Salicyl-4-Anilinoquinazoline Derivatives as Dual EGFR/HER2 Tyrosine Kinase Inhibitors” (PLoS ONE, 2013).

Read-outs that look alike come from different tables or passages of the source.

The target of one data set is T1, human EGFR (Homo sapiens, UniProt P00533).
T1 construct: the cytoplasmic domain (amino acids 669-1210) of human EGFR; FLAG (DYKDDDD) (N); made in house
Put plainly: EGFR kinase assay ([γ-32P] ATP, poly-Glu-Tyr). The format is biochemical. The conditions noted are these: phosphorylation of poly-Glu-Tyr copolymer; mean, >1 determination; read-out: Enzyme activity IC50 against EGFR kinase. On the procedure:
(§1) The expressed HER2 kinase and EGFR kinase were purified by anti-FLAG M2 affinity gel (Sigma-Aldrich, USA). The HER2 and EGFR kinase assays were performed using radiolabeled [γ-^32P] ATP (GEHealthcare, USA) in 96-well plates. The kinase reactions were performed in 50 mmol/L Tris-HCl, pH7.5, 5 mmol/L MnCl2, 0.01% Tween-20 and 2 mmol/L DTT containing 0.9 μCi of [γ-^32P] ATP per reaction, 50 μmol/L ATP, 5 μg/mL poly-Glu-Tyr (4:1) and 0.25 μg/mL of purified Her2 or EGFR cytoplasmic domain in a total volume of 50 μL. […] Kinase reactions were initiated by adding ATP. After the kinase reaction incubated for 10 minutes at room temperature, reactions were terminated by the addition of 10% (final concentration) trichloroacetic acid. The [γ-^32P]-phosphorylated proteins were filtered in a harvest plate (Millipore, USA) with a cell harvester (PerkinElmer, USA) and washed free of [γ-^32P] ATP with 3% phosphoric acid. The plates were dried, followed by the addition of 25 μL of MicroScintO (PerkinElmer, USA). Radioactivity was counted by a Topcount scintillation counter (PerkinElmer, USA).

Another data set addresses T2, human HER2 (Homo sapiens, UniProt P04626).
T2 construct: The cytoplasmic domain (amino acids 676-1255) of human HER2; FLAG (DYKDDDD) (N); made in house
As to the kind of experiment: HER2 kinase assay ([γ-32P] ATP, poly-Glu-Tyr). The conditions noted are these: phosphorylation of poly-Glu-Tyr copolymer; mean, >1 determination; read-out: Enzyme activity IC50 against HER2 kinase. In kind it is biochemical. On the procedure:
as §1

The test system of the next data set is A549 cells. As to the kind of experiment: Antiproliferation WST-1 assay, A549. In kind it is cell-based, human. On the procedure: (§2) WST-1 is better than MTT for analyzing cell proliferation, because it can be reduced to soluble formazan by dehydrogenase in mitochondria and has little toxicity to cells. Cell proliferation was determined using WST-1 dye (Beyotime Inst Biotech, China) according to manufacture’s instructions. Brieﬂy, 5 × 10^3 cells per well were seeded in a 96-well plate, grown at 37 ℃ for 24 h, and then placed in serum-starved conditions for a further 6 h. Subsequently, cells were treated with compounds (Table 1) at increasing concentrations in the presence of 10% FBS for 24 or 48h. After 10 µL WST-1 dye was added to each well, cells were incubated at 37 ℃ for 2 h and the absorbance was ﬁnally determined at 450 nm using a microplate reader.

The subject of the next data set is MCF-7 cells. As to the kind of experiment: Antiproliferation WST-1 assay, MCF-7. In kind it is cell-based, human. The conditions noted are these: Homo sapiens. The method, then:
as §2
On the technique in general: Tetrazolium dyes change colour on reduction, which living cells bring about.

A further data set has as its system A431 cells. As to the kind of experiment: Antiproliferation WST-1 assay, A431. The conditions noted are these: Homo sapiens, A-431, WST-1 assay; A431, overexpression of EGFR; read-out: Cellular IC50, A431. In kind it is cell-based, human. On the procedure:
as §2

The subject of the next data set is MDA-MB-453 cells. As to the kind of experiment: Antiproliferation WST-1 assay, MDA-MB-453. The conditions noted are these: Homo sapiens, breast cancer, HER-2++, PTEN deficiency. The format is cell-based. On the procedure: as §2
In the next data set the test system is H1781 cells. Put plainly: Antiproliferation WST-1 assay, H1781. The format is cell-based. The conditions noted are these: NCI-H1781, NSCLC, HER-2 G776ins V_G/C, lapatinib-resistant. On the procedure: as §2
In the next data set the test system is H1975 cells. As to the kind of experiment: Antiproliferation WST-1 assay, H1975. In kind it is cell-based. The conditions noted are these: Homo sapiens, NCI-H1975, NSCLC, EGFR L858R/T790M. The method, then:
as §2

Where [1] appears, read: WST-1 assay, A549 carcinomic human alveolar basal epithelial cell, read-out: Cellular IC50, A549.
Setting [2] is: MCF7, WST-1 assay, MCF-7 breast cancer, Her2/neu overexpression, read-out: Cellular IC50, MCF-7.

T1 sequence (P00533 669-1210): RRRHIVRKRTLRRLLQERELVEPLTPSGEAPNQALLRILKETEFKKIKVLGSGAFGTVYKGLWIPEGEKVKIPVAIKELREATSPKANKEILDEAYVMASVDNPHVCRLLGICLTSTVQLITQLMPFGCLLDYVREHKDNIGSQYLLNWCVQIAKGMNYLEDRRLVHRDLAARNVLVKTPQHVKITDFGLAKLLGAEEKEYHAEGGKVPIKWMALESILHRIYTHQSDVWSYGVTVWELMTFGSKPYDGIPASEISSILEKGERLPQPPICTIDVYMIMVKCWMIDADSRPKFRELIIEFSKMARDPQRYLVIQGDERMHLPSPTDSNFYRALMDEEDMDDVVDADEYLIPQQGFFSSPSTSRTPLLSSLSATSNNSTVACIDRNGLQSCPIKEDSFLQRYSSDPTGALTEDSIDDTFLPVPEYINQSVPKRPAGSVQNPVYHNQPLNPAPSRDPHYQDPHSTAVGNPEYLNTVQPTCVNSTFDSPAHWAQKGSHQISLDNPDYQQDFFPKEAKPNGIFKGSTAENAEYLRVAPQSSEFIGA
T2 sequence (P04626 676-1255): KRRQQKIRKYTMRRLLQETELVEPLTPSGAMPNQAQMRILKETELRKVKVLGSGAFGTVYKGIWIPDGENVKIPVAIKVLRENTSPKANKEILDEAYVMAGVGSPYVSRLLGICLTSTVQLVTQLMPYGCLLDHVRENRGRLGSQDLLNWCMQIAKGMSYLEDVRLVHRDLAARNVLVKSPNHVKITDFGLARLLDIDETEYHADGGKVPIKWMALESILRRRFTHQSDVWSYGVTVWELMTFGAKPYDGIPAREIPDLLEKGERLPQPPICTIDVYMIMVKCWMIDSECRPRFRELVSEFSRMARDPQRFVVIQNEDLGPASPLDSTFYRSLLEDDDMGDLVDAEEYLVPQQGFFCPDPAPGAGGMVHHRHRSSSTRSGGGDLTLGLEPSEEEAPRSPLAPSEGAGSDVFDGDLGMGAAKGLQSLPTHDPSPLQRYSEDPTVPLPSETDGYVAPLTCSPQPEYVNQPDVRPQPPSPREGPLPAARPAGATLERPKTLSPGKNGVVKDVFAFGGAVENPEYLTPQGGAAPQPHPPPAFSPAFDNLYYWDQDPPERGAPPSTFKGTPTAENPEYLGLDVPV

One may read the IC50 as the point on the concentration scale where inhibition reaches its midpoint. As a reminder, the melting point is the temperature, or range, at which the solid turns liquid. In turn, `CCOc1ccccc1C(=O)Nc1ccc2ncnc(Nc3cccc(Cl)c3)c2c1` [Compound 26, N-(4-(3-chlorophenylamino)quinazolin-6-yl)-2-ethoxybenzamide] came in with a melting point of 111 to 113 °C. In addition, the IC50 on human EGFR came to 6.3 ± 0.076 µM. Further, the half-maximal inhibitory concentration (IC50) on human HER2 came out at 4.1 ± 0.091 µM. The IC50 in the data set on A549 cells (setting [1]) is 1.58 ± 0.093 µM. For the same compound, in the data set on MCF-7 cells (setting [2]), the IC50 stood at 0.82 ± 0.082 µM. Also, the IC50 with A431 cells was found to be 0.76 ± 0.002 µM.

Consider `O=C(Nc1ccc2ncnc(Nc3cccc(Br)c3)c2c1)c1ccc(Cl)cc1` [Compound 27, N-(4-(3-bromophenylamino)quinazolin-6-yl)-4-chlorobenzamide], for which the melting point lay in the range of 230 to 232 °C. Further, at human EGFR, the IC50 is 7.7 ± 0.088 µM. Moreover, on human HER2, the IC50 stood at 4.6 ± 0.226 µM. In addition, in the data set on A549 cells (setting [1]), the IC50 came to 1.78 ± 0.034 µM. Besides, the 50% inhibitory concentration (IC50) in the data set on MCF-7 cells (setting [2]) came out at 1.29 ± 0.076 µM. Also, the IC50 with A431 cells amounted to 1.48 ± 0.034 µM.

In the case of `CS(=O)(=O)CCNCc1ccc(-c2ccc3ncnc(Nc4ccc(OCc5cccc(F)c5)c(Cl)c4)c3c2)o1` [Lapatinib, reference compound], the concentration for half-maximal inhibition (IC50) in the data set with A549 cells (Homo sapiens, A549, read-out: Cellular IC50, A549) was 1.12 ± 0.022 µM; in the data set with MCF-7 cells (MCF7, read-out: Cellular IC50, MCF-7), 0.21 ± 0.003 µM; in the data set on MDA-MB-453 cells, 0.72 ± 0.023 µM; with H1781 cells, 2.1 ± 0.034 µM; with H1975 cells it was 3.9 ± 0.419 µM.
